For 16 molecules, MIC and CC50 results are on record in ChEMBL document CHEMBL4513161, “CO-ADD screening of MMV (CH) - Pandemic Response Box” (2021).

The subject of one assay is Escherichia coli. The experiment in a line: microbe, parasite or virus in culture. As to conditions: ATCC 25922, 18 h, ASSAY_TEST Inhibition of Bacterial Growth, detection method Absorption (OD600), MEDIA CAMHB, plate type 384well, NBS, CORNING #3640.
In a further assay the test system is Klebsiella pneumoniae. The experiment in a line: microbe, parasite or virus in culture. As to conditions: ATCC 700603, 18 h, ASSAY_TEST Inhibition of Bacterial Growth, detection method Absorption (OD600), MEDIA CAMHB, plate type 384well, NBS, CORNING #3640.
The next assay relates to Candida albicans. The experiment in a line: microbe, parasite or virus in culture. The settings on record: ATCC 90028, ASSAY_TEST Inhibition of Fungal Growth, detection method Absorption (OD530), plate type 384well, NBS, CORNING #3640.
Another assay concerns Staphylococcus aureus. The experiment in a line: microbe, parasite or virus in culture. As to conditions: ATCC 43300, 18 h, ASSAY_TEST Inhibition of Bacterial Growth, detection method Absorption (OD600), MEDIA CAMHB, plate type 384well, NBS, CORNING #3640.
For assay [1], the system named is Pseudomonas aeruginosa. Description: Antibacterial activity against Pseudomonas aeruginosa PAO397 [PAO1 d(mexAB-oprM) d(mexCD-oprJ) d(mexEF-oprN) d(mexJKL) d(mexXY) d(opmH)] (CO-ADD:GN_211); MIC in CAMBH media using NBS plates, by OD(600). It counts as functional. As to conditions: ASSAY_TEST Inhibition of Bacterial Growth, detection method Absorption (OD600), MEDIA CAMHB, plate type 384well, CORNING #3640, time 18 hr.

The next assay deals with Acinetobacter baumannii. The experiment in a line: microbe, parasite or virus in culture. As to conditions: ATCC 19606, 18 h, ASSAY_TEST Inhibition of Bacterial Growth, detection method Absorption (OD600), MEDIA CAMHB, plate type 384well, NBS, CORNING #3640.
Another assay deals with HEK293. The experiment in a line: cells. Type of assay: functional, Homo sapiens, ATCC CRL1573. As to conditions: Homo sapiens, ATCC CRL1573, HEK293; ASSAY_TEST Inhibition of Cell Viability; detection method Resazurin; Fluorescence (ex560/em590); MEDIA DMEM with 10% FBS; plate type 384well; TC; CORNING #3712; time 18 hr; read-out: CC50. (The colour change of resazurin is a common sign of viable cells or microbes.)

For assay [2], the system named is Pseudomonas aeruginosa. Description: microbe, parasite or virus in culture. As to conditions: ATCC 27853, 18 h, ASSAY_TEST Inhibition of Bacterial Growth, detection method Absorption (OD600), MEDIA CAMHB, plate type 384well, NBS, CORNING #3640.
Description: Antibacterial activity against Pseudomonas aeruginosa ATCC 27853 (CO-ADD:GN_042); MIC in CAMBH media using NBS plates, by OD(600)

Converted amounts (≈) assume the structure as drawn. Where a name gives a salt, the structure may show the parent alone.

As usually defined, the CC50 is the concentration giving 50% cytotoxicity.

Description for Acinetobacter baumannii: Antibacterial activity against Acinetobacter baumannii ATCC 19606 (CO-ADD:GN_034); MIC in CAMBH media using NBS plates, by OD600
Description for Candida albicans: Antifungal activity against Candida albicans ATCC 90028 (CO-ADD:FG_001); MIC in YNB media using NBS plates, by OD630
Description for Cryptococcus neoformans: Antifungal activity against Cryptococcus neoformans H99 ATCC 208821 (CO-ADD:FG_002); MIC in YNB media using NBS plates, by Resazurin OD(600-570)
Description for Escherichia coli: Antibacterial activity against Escherichia coli ATCC 25922 (CO-ADD:GN_001); MIC in CAMBH media using NBS plates, by OD(600)
Description for Klebsiella pneumoniae: Antibacterial activity against Klebsiella pneumoniae MDR ATCC 70063 (CO-ADD:GN_003); MIC in CAMBH media using NBS plates, by OD(600)
Description for Staphylococcus aureus: Antibacterial activity against Staphylococcus aureus MRSA ATCC 43300 (CO-ADD:GP_020); MIC in CAMBH media, using NBS plates, by OD(600)

On to `C=C[C@]1(C)C[C@@H](OC(=O)CS[C@@H]2C[C@H]3CC[C@@H](C2)N3C)[C@]2(C)[C@H](C)CC[C@]3(CCC(=O)[C@H]32)[C@@H](C)[C@@H]1O` [RETAPAMULIN], for which the MIC with Escherichia coli was more than 20 µM; against Klebsiella pneumoniae it was more than 20 µM; in the assay on Candida albicans, more than 20 µM; with Staphylococcus aureus, not above 0.156 µM; in the assay on Pseudomonas aeruginosa [1], 2.5 µM (≈ 1.29 µg/mL); against Cryptococcus neoformans, more than 20 µM. Besides, the MIC against Acinetobacter baumannii and in the assay on Pseudomonas aeruginosa [2] was more than 20 µM in each case. For the same molecule, the CC50 with HEK293 was more than 20 µM.
Turning to `Cc1nc(Nc2ccc(F)cc2)nc(N2CCc3ccccc3C2C)c1C` (centres undefined) [REVAPRAZAN], the MIC in the assay with Escherichia coli, against Klebsiella pneumoniae, in the assay on Candida albicans, in the assay on Staphylococcus aureus, in the assay with Pseudomonas aeruginosa [1] and with Cryptococcus neoformans was more than 20 µM in each case. Besides, the MIC against Acinetobacter baumannii and against Pseudomonas aeruginosa [2] was more than 20 µM each time. Moreover, the CC50 with HEK293 is more than 20 µM.
Turning to `CC(N)C12CC3CC(CC(C3)C1)C2` (centres undefined) [RIMANTADINE HYDROCHLORIDE], the MIC in the assay on Escherichia coli, in the assay on Klebsiella pneumoniae, in the assay with Candida albicans, against Staphylococcus aureus, in the assay with Pseudomonas aeruginosa [1] and in the assay with Cryptococcus neoformans was more than 20 µM throughout. In addition, the MIC in the assay on Acinetobacter baumannii and against Pseudomonas aeruginosa [2] was more than 20 µM in each case. For the same molecule, the CC50 in the assay on HEK293 is more than 20 µM.
For `COc1ccc(C2CNC(=O)C2)cc1OC1CCCC1` (centres undefined) [ROLIPRAM], the MIC against Escherichia coli, against Klebsiella pneumoniae, against Candida albicans, in the assay on Staphylococcus aureus, against Pseudomonas aeruginosa [1] and against Cryptococcus neoformans was more than 20 µM each time. The MIC in the assay on Acinetobacter baumannii and in the assay with Pseudomonas aeruginosa [2] was more than 20 µM throughout. Moreover, the CC50 in the assay with HEK293 is more than 20 µM.
Regarding `CC[C@@]1(O)C(=O)OCc2c1cc1n(c2=O)Cc2cc3c([N+](=O)[O-])cccc3nc2-1` [RUBITECAN], the MIC in the assay on Escherichia coli, in the assay on Klebsiella pneumoniae, in the assay on Candida albicans, in the assay on Staphylococcus aureus, in the assay with Pseudomonas aeruginosa [1] and against Cryptococcus neoformans was more than 20 µM in each case. Further, the MIC in the assay on Acinetobacter baumannii and against Pseudomonas aeruginosa [2] was more than 20 µM throughout. Further, the CC50 with HEK293 is 0.695 µM.
With `OCCC#Cc1nc(-c2ccc(F)cc2)c(-c2ccncc2)n1CCCc1ccccc1` [RWJ-67657], the MIC in the assay on Escherichia coli, in the assay with Klebsiella pneumoniae, in the assay with Candida albicans, against Staphylococcus aureus, against Pseudomonas aeruginosa [1] and against Cryptococcus neoformans was more than 20 µM throughout. The MIC in the assay with Acinetobacter baumannii and in the assay on Pseudomonas aeruginosa [2] was more than 20 µM in each case. Also, in the assay with HEK293, the CC50 was more than 20 µM.
In the case of `Cc1ncc([N+](=O)[O-])n1CC(C)O` (centres undefined) [SECNIDAZOLE], the MIC against Escherichia coli, against Klebsiella pneumoniae, against Candida albicans, in the assay with Staphylococcus aureus, in the assay with Pseudomonas aeruginosa [1] and in the assay on Cryptococcus neoformans was more than 20 µM in each case. Besides, the MIC in the assay on Acinetobacter baumannii and against Pseudomonas aeruginosa [2] was more than 20 µM throughout. For the same molecule, in the assay with HEK293, the CC50 is more than 20 µM.
Turning to `CC[C@H](CO)Nc1nc(NCc2ccccc2)c2ncn(C(C)C)c2n1` [SELICICLIB], the MIC against Escherichia coli, with Klebsiella pneumoniae, in the assay on Candida albicans, with Staphylococcus aureus, with Pseudomonas aeruginosa [1] and in the assay on Cryptococcus neoformans was more than 20 µM throughout. Moreover, the MIC against Acinetobacter baumannii and in the assay on Pseudomonas aeruginosa [2] was more than 20 µM each time. Besides, the CC50 in the assay with HEK293 was more than 20 µM.
On to `N[C@@H]1CN(c2c(F)cc3c(=O)c(C(=O)O)cn([C@@H]4C[C@@H]4F)c3c2Cl)CC12CC2` [SITAFLOXACIN ANHYDROUS], for which the MIC was not above 0.156 µM in the assay with Escherichia coli; 5 µM (≈ 2.05 µg/mL) against Klebsiella pneumoniae; more than 20 µM with Candida albicans; 0.312 µM (≈ 0.128 µg/mL) in the assay with Staphylococcus aureus; not above 0.156 µM against Pseudomonas aeruginosa [1]; more than 20 µM against Cryptococcus neoformans. The MIC against Acinetobacter baumannii came to 5 µM (≈ 2.05 µg/mL); in the assay on Pseudomonas aeruginosa [2] it was 2.5 µM (≈ 1.02 µg/mL). The half-maximal cytotoxic concentration (CC50) with HEK293 is more than 20 µM.
Consider `CC(C)=CCC/C(C)=C/CNCCNC1C2CC3CC(C2)CC1C3` (centres undefined) [SQ109], for which the MIC in the assay with Escherichia coli is more than 20 µM; against Klebsiella pneumoniae, more than 20 µM; in the assay on Candida albicans it was more than 20 µM; against Staphylococcus aureus it was more than 20 µM; with Pseudomonas aeruginosa [1], 20 µM (≈ 6.61 µg/mL); in the assay on Cryptococcus neoformans, more than 20 µM. Further, the MIC in the assay with Acinetobacter baumannii and in the assay with Pseudomonas aeruginosa [2] was more than 20 µM each time. Also, the CC50 in the assay on HEK293 turned out to be 19.5 µM.
Consider `COc1cc(C)c2c(Oc3cccc(C(F)(F)F)c3)c(OC)cc(NC(C)CCCN)c2n1` (centres undefined) [TAFENOQUINE SUCCINATE], for which the MIC in the assay with Escherichia coli was more than 20 µM; with Klebsiella pneumoniae, more than 20 µM; with Candida albicans, more than 20 µM; with Staphylococcus aureus it was 10 µM; with Pseudomonas aeruginosa [1], more than 20 µM; against Cryptococcus neoformans, more than 20 µM. Besides, the MIC in the assay on Acinetobacter baumannii and against Pseudomonas aeruginosa [2] was more than 20 µM throughout. In addition, the CC50 with HEK293 turned out to be 6.36 µM.
For the molecule `O=C(NN1C(=O)[C@@H]2[C@@H]3C=C[C@@H]([C@H]4C[C@@H]34)[C@@H]2C1=O)c1ccc(C(F)(F)F)cc1` [TECOVIRIMAT], the MIC with Escherichia coli, in the assay on Klebsiella pneumoniae, with Candida albicans, against Staphylococcus aureus, against Pseudomonas aeruginosa [1] and against Cryptococcus neoformans was more than 20 µM in each case. Further, the MIC against Acinetobacter baumannii and against Pseudomonas aeruginosa [2] was more than 20 µM each time. Also, the CC50 with HEK293 is more than 20 µM.
On to `CCc1nc2ccc(Cl)cn2c1C(=O)NCc1ccc(N2CCC(c3ccc(OC(F)(F)F)cc3)CC2)cc1` [TELACEBEC], for which the MIC in the assay with Escherichia coli, in the assay with Klebsiella pneumoniae, with Candida albicans, against Staphylococcus aureus, against Pseudomonas aeruginosa [1] and against Cryptococcus neoformans was more than 20 µM each time. The MIC in the assay on Acinetobacter baumannii and in the assay on Pseudomonas aeruginosa [2] was more than 20 µM in each case. Also, the CC50 with HEK293 is more than 20 µM.
Take `C[C@H](Cn1cnc2c(N)ncnc21)OCP(=O)(O)O` [TENOFOVIR ANHYDROUS]: the MIC in the assay on Escherichia coli, in the assay on Klebsiella pneumoniae, against Candida albicans, against Staphylococcus aureus, in the assay on Pseudomonas aeruginosa [1] and in the assay on Cryptococcus neoformans was more than 20 µM each time. For the same molecule, the MIC against Acinetobacter baumannii and in the assay on Pseudomonas aeruginosa [2] was more than 20 µM in each case. The CC50 with HEK293 was more than 20 µM.
Take `COc1ccc(C[C@@H](C)[C@@H](C)Cc2ccc(OC)c(OC)c2)cc1OC` [TERAMEPROCOL]: the MIC in the assay with Escherichia coli, with Klebsiella pneumoniae, against Candida albicans, against Staphylococcus aureus, with Pseudomonas aeruginosa [1] and with Cryptococcus neoformans was more than 20 µM throughout. The MIC in the assay on Acinetobacter baumannii and against Pseudomonas aeruginosa [2] was more than 20 µM in each case. Further, in the assay on HEK293, the CC50 was more than 20 µM.
On to `CN(C/C=C/C#CC(C)(C)C)Cc1cccc2ccccc12` [TERBINAFINE HYDROCHLORIDE], for which the MIC in the assay with Escherichia coli was more than 20 µM; in the assay on Klebsiella pneumoniae, more than 20 µM; with Candida albicans, more than 20 µM; with Staphylococcus aureus, more than 20 µM; with Pseudomonas aeruginosa [1], more than 20 µM; in the assay with Cryptococcus neoformans it was 20 µM. Further, the MIC against Acinetobacter baumannii and in the assay on Pseudomonas aeruginosa [2] was more than 20 µM each time. Also, the CC50 in the assay on HEK293 is more than 20 µM.
